Experimental data reported in patent publication US8809341B2, “2,4-pyrimidinediamine compounds and uses as anti-proliferative agents” (Rigel Pharmaceuticals, Inc., priority 2003, dated 2014).

Test system: A549 cells
Assay: in vitro antiproliferation assay, A549 (lung)
Assay type: cell-based
Protocol: The IC50 values of various compounds against a various different tumor cell lines were determined using standard in vitro antiproliferation assays. The tumor cell lines tested were as follows: A549 (lung); H1299 (lung), ACHN (kidney/p53 wt), CAKI (renal cell carcinoma), NCI-H460 (lung); HCT116 (colon/p53w0; HELA (cervix/p53 wt), HUH7 (liver/p53 wt), HUVEC (primary endothelial), LNCAP (prostate), HT-29 (colon); MCF-7 (breast); MCF-7 (breast/ER positive), MDA MB435S (breast); MDA MB231 (breast/ER negative), DU145 (prostate); BxPC-3 (pancreatic); SKOV-3 (ovarian); HepG2 (hepatic), NDHF primary normal human dermal fibroblast), SKMEL28 (breast/p53mut), SKMEL5 (breast/p53 wt), U20S (bone) and PC3 (prostate). […] A blank indicates the specified compound was not tested against the specified cell line.

[1] = Table 5, in vitro antiproliferation, A549 (lung) cells
[2] = Table 7, in vitro antiproliferation, A549 (lung) cells
[3] = A549 (lung) cells, in vitro antiproliferation
[4] = A549 (lung) cells, antiproliferation

Work on `CC(C)(C)c1cc(Nc2nc(Nc3cccc(N4CCOCC4)c3)ncc2F)n[nH]1` [compound 199] yielded an IC50 (Homo sapiens, IC50 class against A549 (lung) tumor cells) of no more than 20 µM.

`CC1(C)Oc2ccc(Nc3nc(Nc4cc(Cl)cc(Cl)c4)ncc3F)cc2NC1=O` [compound 308] gave an IC50 (in vitro antiproliferation, A549 (lung) cells, Table 4, compounds with no designated stereochemistry tested as racemate) of no more than 20 µM.

For `O=C(COc1ccc(Nc2ncc(F)c(Nc3ccc4c(c3)OCCO4)n2)cc1)NCCO` [compound 474], the IC50 [1] was greater than 20 µM.

With `CCCCCCOc1ccc(Nc2ncc(F)c(Nc3ccc4c(c3)OCCO4)n2)cc1` [compound 477] the IC50 [1] was greater than 20 µM.

In the case of `CCOc1ccc(Nc2ncc(F)c(Nc3ccc4c(c3)OCCO4)n2)cc1` [compound 478], the IC50 [1] is reported as no more than 20 µM.

Work on `CCCCOc1ccc(Nc2ncc(F)c(Nc3ccc4c(c3)OCCO4)n2)cc1` [compound 479] yielded an IC50 [1] greater than 20 µM.

Work on `CCOC(=O)COc1ccc(Nc2ncc(F)c(Nc3ccc4c(c3)OCCO4)n2)cc1` [compound 480] yielded an IC50 [1] greater than 20 µM.

`CN(C)C(=O)COc1cccc(Nc2ncc(F)c(Nc3ccc4c(c3)OCCO4)n2)c1` [compound 481] gave an IC50 [1] greater than 20 µM.

`Oc1cccc(Nc2ncc(F)c(Nc3ccc4c(c3)OCCO4)n2)c1` [compound 482] was tested, and the IC50 [1] was greater than 20 µM.

In the case of `Fc1ccc(Nc2ncc(F)c(Nc3ccc4c(c3)OCCO4)n2)cc1Cl` [compound 485], the IC50 [1] is reported as greater than 20 µM.

In the case of `Fc1ccc(Nc2ncc(F)c(Nc3ccc4c(c3)OCCO4)n2)cc1` [compound 487], the IC50 [1] is reported as greater than 20 µM.

`CCc1ccc(Nc2ncc(F)c(Nc3ccc4c(c3)OCCO4)n2)cc1` [compound 489] gave an IC50 [1] greater than 20 µM.

`O=C(O)COc1ccc(Nc2ncc(F)c(Nc3ccc4c(c3)OCCO4)n2)cc1` [compound 490] gave an IC50 [1] greater than 20 µM.

`CC(=O)COc1cccc(Nc2ncc(F)c(Nc3ccc4c(c3)OCCO4)n2)c1` [compound 492] was tested, and the IC50 [1] was greater than 20 µM.

`CNCCOc1cccc(Nc2ncc(F)c(Nc3ccc4c(c3)OCCO4)n2)c1` [compound 498] gave an IC50 [1] greater than 20 µM.

`Fc1cnc(Nc2cccc(C(F)(F)F)c2)nc1Nc1ccc2c(c1)OCCO2` [compound 514] gave an IC50 [1] greater than 20 µM.

`O=C(COc1cccc(Nc2ncc(F)c(Nc3ccc4c(c3)OCCO4)n2)c1)NC1CC1` [compound 520] was tested, and the IC50 [1] was no more than 20 µM.

Molecule `OCCOc1cccc(Nc2ncc(F)c(Nc3ccc4c(c3)OCCO4)n2)c1` [compound 576] has an IC50 [1] of no more than 20 µM.

`COC(=O)COc1cccc(Nc2ncc(F)c(Nc3ccc4c(c3)OCCO4)n2)c1` [compound 586] showed an IC50 [1] greater than 20 µM.

`OCCOc1ccc(Nc2ncc(F)c(Nc3ccc4c(c3)OCCO4)n2)cc1` [compound 587] showed an IC50 [1] of no more than 20 µM.

Work on `CCOC(=O)c1cc2cc(Nc3ncc(F)c(Nc4ccc(C(C)(C)C)cc4)n3)ccc2[nH]1` [compound 617] yielded an IC50 [2] greater than 20 µM.

`CCOC(=O)c1cc2cc(Nc3ncc(F)c(Nc4ccc5c(c4)OCCO5)n3)ccc2[nH]1` [compound 618] was tested, and the IC50 [2] was no more than 20 µM.

For `COC(=O)c1cc2cc(Nc3ncc(F)c(Nc4ccc(C(C)(C)C)cc4)n3)ccc2o1` [compound 619], the IC50 [2] was greater than 20 µM.

In the case of `O=C(O)c1cc2cc(Nc3ncc(F)c(Nc4cccc(O)c4)n3)ccc2[nH]1` [compound 621], the IC50 [2] is reported as greater than 20 µM.

For `CC(C)(C)c1ccc(Nc2nc(Nc3ccc4oc(C(=O)O)cc4c3)ncc2F)cc1` [compound 622], the IC50 [2] was greater than 20 µM.

Work on `COC(=O)c1cc2cc(Nc3ncc(F)c(Nc4cccc(OC(C)C)c4)n3)ccc2o1` [compound 623] yielded an IC50 [2] greater than 20 µM.

In the case of `O=C(c1cc2cc(Nc3ncc(F)c(Nc4cccc(O)c4)n3)ccc2o1)N1CCOCC1` [compound 624], the IC50 [2] is reported as greater than 20 µM.

In the case of `CNC(=O)c1cc2cc(Nc3ncc(F)c(Nc4cccc(O)c4)n3)ccc2o1` [compound 627], the IC50 [2] is reported as greater than 20 µM.

`CNC(=O)c1cc2cc(Nc3ncc(F)c(Nc4ccc(C(C)(C)C)cc4)n3)ccc2o1` [compound 628] gave an IC50 [2] greater than 20 µM.

For `O=C(NCCO)c1cc2cc(Nc3ncc(F)c(Nc4cccc(O)c4)n3)ccc2o1` [compound 630], the IC50 [2] was greater than 20 µM.

With `COC(=O)c1cc2cc(Nc3ncc(F)c(Nc4ccc5c(c4)OCCO5)n3)ccc2o1` [compound 638] the IC50 [2] was greater than 20 µM.

For `O=C(O)c1cc2cc(Nc3ncc(F)c(Nc4ccc5c(c4)OCCO5)n3)ccc2o1` [compound 639], the IC50 [2] was greater than 20 µM.

`CC(C)Oc1ccc(Nc2nc(Nc3ccc4oc(C(=O)N5CCCC5)cc4c3)ncc2F)cc1` [compound 640] was tested, and the IC50 [2] was greater than 20 µM.

For `COC(=O)c1cc2cc(Nc3ncc(F)c(Nc4ccc(OC(C)C)cc4)n3)ccc2o1` [compound 641], the IC50 [2] was greater than 20 µM.

For `CNC(=O)c1cc2cc(Nc3ncc(F)c(Nc4cccc(C(C)(C)C)c4)n3)ccc2o1` [compound 675], the IC50 [2] was greater than 20 µM.

`CN(C)CCOc1ccc(Nc2ncc(F)c(Nc3cccc(O)c3)n2)cc1` [compound 693] gave an IC50 [3] of no more than 20 µM.

`Fc1cc(Nc2ncc(F)c(Nc3ccc(C(F)(F)F)c(F)c3)n2)ccc1C(F)(F)F` [compound 703] was tested, and the IC50 [3] was greater than 20 µM.

`Fc1cnc(Nc2cccc(OC(F)(F)F)c2)nc1Nc1cccc(OC(F)(F)F)c1` [compound 705] showed an IC50 [3] greater than 20 µM.

Work on `Fc1cnc(Nc2ccc(Cl)c(C(F)(F)F)c2)nc1Nc1ccc(Cl)c(C(F)(F)F)c1` [compound 706] yielded an IC50 [3] greater than 20 µM.

`CCOc1cccc(Nc2ncc(F)c(Nc3cccc(OCC)c3)n2)c1` [compound 707] showed an IC50 [3] of no more than 20 µM.

Work on `COc1cccc(Nc2ncc(F)c(Nc3cccc(OC)c3)n2)c1` [compound 708] yielded an IC50 [3] of no more than 20 µM.

Work on `CCOc1ccc(Nc2nc(Nc3ccc(OC)c(OC)c3)ncc2F)cc1` [compound 709] yielded an IC50 [3] greater than 20 µM.

`Oc1cccc(Nc2ncc(F)c(Nc3cccc(O)c3)n2)c1` [compound 711] showed an IC50 [3] of no more than 20 µM.

In the case of `COc1ccc(Nc2ncc(F)c(Nc3cccc(O)c3)n2)cc1OC` [compound 712], the IC50 [3] is reported as greater than 20 µM.

`CCOc1ccc(Nc2nc(Nc3cccc(O)c3)ncc2F)cc1` [compound 714] was tested, and the IC50 [3] was greater than 20 µM.

`COc1ccc(Nc2nc(Nc3cccc(O)c3)ncc2F)cc1OC` [compound 715] gave an IC50 [3] of no more than 20 µM.

In the case of `Fc1cnc(Nc2ccc(Cl)cc2)nc1Nc1ccc(Cl)cc1` [compound 716], the IC50 [3] is reported as greater than 20 µM.

For `CCc1ccc(Nc2ncc(F)c(Nc3ccc(CC)cc3)n2)cc1` [compound 722], the IC50 [3] was greater than 20 µM.

With `COC(=O)COc1ccc(Nc2ncc(F)c(Nc3ccc(OCC(=O)OC)cc3)n2)cc1` [compound 723] the IC50 [3] was no more than 20 µM.

`COc1ccc(Nc2ncc(F)c(Nc3ccc(OC)c(O)c3)n2)cc1O` [compound 725] was tested, and the IC50 [3] was no more than 20 µM.

For `CCOC(=O)COc1ccc(Nc2ncc(F)c(Nc3cccc(O)c3)n2)cc1` [compound 729], the IC50 [3] was greater than 20 µM.

Molecule `Oc1ccc(Nc2ncc(F)c(Nc3ccc(O)cc3)n2)cc1` [compound 730] has an IC50 [3] of no more than 20 µM.

In the case of `Cc1cc(Nc2ncc(F)c(Nc3ccc(O)c(C)c3)n2)ccc1O` [compound 731], the IC50 [3] is reported as greater than 20 µM.

`O=C(O)COc1ccc(Nc2ncc(F)c(Nc3ccc(OCC(=O)O)cc3)n2)cc1` [compound 733] showed an IC50 [3] greater than 20 µM.

For `CNC(=O)COc1ccc(Nc2ncc(F)c(Nc3ccc(OCC(=O)O)cc3)n2)cc1` [compound 734], the IC50 [3] was greater than 20 µM.

Work on `O=C(O)COc1ccc(Nc2ncc(F)c(Nc3cccc(Cl)c3)n2)cc1` [compound 736] yielded an IC50 [3] greater than 20 µM.

`CCOC(=O)COc1ccc(Nc2ncc(F)c(Nc3ccc(OCC(=O)OCC)cc3)n2)cc1` [compound 737] showed an IC50 [3] greater than 20 µM.

In the case of `COC(=O)COc1ccc(Nc2ncc(F)c(Nc3ccc(OCC(=O)OC(C)(C)C)cc3)n2)cc1` [compound 738], the IC50 [3] is reported as greater than 20 µM.

Work on `CC(C)(C)OC(=O)COc1ccc(Nc2ncc(F)c(Nc3ccc(OCC(=O)OC(C)(C)C)cc3)n2)cc1` [compound 739] yielded an IC50 [3] greater than 20 µM.

For `COc1cc(Nc2ncc(F)c(Nc3cc(OC)c(OC)c(OC)c3)n2)cc(OC)c1OC` [compound 743], the IC50 [3] was greater than 20 µM.

For `Oc1cccc(Nc2nc(Nc3ccc(OCCN4CCOCC4)cc3)ncc2F)c1` [compound 744], the IC50 [3] was no more than 20 µM.

`CC(C)Oc1ccc(Nc2ncc(F)c(Nc3ccc(OC(C)C)cc3)n2)cc1` [compound 745] was tested, and the IC50 [3] was greater than 20 µM.

Molecule `COc1cc(Nc2ncc(F)c(Nc3cccc(O)c3)n2)cc(OC)c1OC` [compound 760] has an IC50 [3] greater than 20 µM.

For `CNC(=O)COc1cccc(Nc2ncc(F)c(Nc3cccc(C(F)(F)F)c3)n2)c1` [compound 770], the IC50 [3] was no more than 20 µM.

`CNC(=O)COc1cccc(Nc2nc(Nc3cc(OC)cc(OC)c3)ncc2F)c1` [compound 771] showed an IC50 [3] of no more than 20 µM.

`CNC(=O)COc1cccc(Nc2ncc(F)c(Nc3ccc(OC)c(Cl)c3)n2)c1` [compound 788] was tested, and the IC50 [3] was no more than 20 µM.

`OCCOc1ccc(Nc2ncc(F)c(Nc3cccc(O)c3)n2)cc1` [compound 934] gave an IC50 [4] of no more than 20 µM.

With `CC(C)c1ccc(Nc2nc(Nc3cccc(OCCO)c3)ncc2F)cc1` [compound 935] the IC50 [4] was greater than 20 µM.

Molecule `COC(=O)COc1ccc(Nc2ncc(F)c(Nc3ccc(C(C)C)cc3)n2)cc1` [compound 936] has an IC50 [4] greater than 20 µM.

`CC(C)c1ccc(Nc2nc(Nc3ccc(OCCO)cc3)ncc2F)cc1` [compound 937] showed an IC50 [4] of no more than 20 µM.

With `OCCOc1cccc(Nc2nc(Nc3cccc(O)c3)ncc2F)c1` [compound 939] the IC50 [4] was greater than 20 µM.

`Oc1c(Cl)cc(Nc2ncc(F)c(Nc3cc(Cl)c(O)c(Cl)c3)n2)cc1Cl` [compound 941] gave an IC50 [4] greater than 20 µM.

Molecule `Cc1cc(Nc2ncc(F)c(Nc3cccc(O)c3)n2)cc(Cl)c1O` [compound 943] has an IC50 [4] of no more than 20 µM.

In the case of `CC(C)(C)c1cccc(Nc2ncc(F)c(Nc3cccc(O)c3)n2)c1` [compound 951], the IC50 [4] is reported as greater than 20 µM.

Work on `COc1ccc(Nc2nc(Nc3cccc(C(C)(C)C)c3)ncc2F)cc1OC` [compound 953] yielded an IC50 [4] greater than 20 µM.

Work on `CCOc1cccc(Nc2ncc(F)c(Nc3cccc(C(C)C)c3)n2)c1` [compound 964] yielded an IC50 [4] greater than 20 µM.

Work on `CNC(=O)COc1cccc(Nc2ncc(F)c(Nc3cccc(C(C)C)c3)n2)c1` [compound 965] yielded an IC50 [4] greater than 20 µM.

`CC(C)c1cccc(Nc2nc(Nc3cccc(OCCO)c3)ncc2F)c1` [compound 966] was tested, and the IC50 [4] was no more than 20 µM.

With `OCCOc1cccc(Nc2ncc(F)c(Nc3ccc(CO)c(CO)c3)n2)c1` [compound 967] the IC50 [4] was greater than 20 µM.
